Assay results as given in patent US9656988B2 (Pharmacyclics LLC, priority 2013, dated 2017).
Where two headings read alike, the source gives them in different places.

Target: BTK (Homo sapiens (Human), UniProt Q06187)
Experiment: Btk in vitro inhibitory activity (one of Method A TR-FRET, Method B electrophoretic mobility shift, Method C radiometric filter binding)
Type: biochemical
[1] = determined using one of the methods of Example 355a, 355b and 355c, read-out: BTK IC50

BTK, sequence (Q06187 whole entry): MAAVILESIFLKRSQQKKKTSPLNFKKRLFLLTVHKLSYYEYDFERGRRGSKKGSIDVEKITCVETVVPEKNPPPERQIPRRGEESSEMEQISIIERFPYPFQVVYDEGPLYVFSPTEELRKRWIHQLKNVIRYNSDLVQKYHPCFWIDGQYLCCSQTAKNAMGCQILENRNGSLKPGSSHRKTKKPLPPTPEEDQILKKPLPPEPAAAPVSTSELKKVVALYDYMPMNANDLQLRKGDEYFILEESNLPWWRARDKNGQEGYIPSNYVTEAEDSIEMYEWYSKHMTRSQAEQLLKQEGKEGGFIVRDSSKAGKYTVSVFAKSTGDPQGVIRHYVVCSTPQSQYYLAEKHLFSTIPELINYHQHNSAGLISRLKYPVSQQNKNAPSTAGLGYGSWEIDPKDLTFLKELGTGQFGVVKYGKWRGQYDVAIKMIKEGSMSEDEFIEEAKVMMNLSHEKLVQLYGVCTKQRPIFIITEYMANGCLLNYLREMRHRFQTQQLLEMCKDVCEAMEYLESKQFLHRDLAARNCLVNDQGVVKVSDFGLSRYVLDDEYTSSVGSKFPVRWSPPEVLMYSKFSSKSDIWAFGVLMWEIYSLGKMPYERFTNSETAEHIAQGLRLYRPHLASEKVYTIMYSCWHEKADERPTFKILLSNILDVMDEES

| Structure (SMILES) | IC50 [1] | IC50 (read-out: Btk (IC50)) | IC50 (Btk (IC50)) |
| --- | --- | --- | --- |
| CN(C)C(=O)N1CC[C@@H]2[C@H]1CCCN2c1cnc(C(N)=O)c(Nc2ccc(C3CCN(C4CCCC4)CC3)cc2)n1 (racemic) [Example 287, (3aR,7aR)-4-(5-carbamoyl-6-(4-(1-cyclopentylpiperidin-4-yl)phenylamino)pyrazin-2-yl)-N,N-dimethyloctahydro-1H-pyrrolo[3,2-b]pyridine-1-carboxamide] | 10 to 100 nM | 10 to 100 nM |  |
| NC(=O)c1ncc(N2CCC[C@@H]3[C@H]2CCN3C(=O)C2CC2)nc1Nc1ccc(C2CCN(C3CCCC3)CC2)cc1 (racemic) [Example 288, 3-(4-(1-cyclopentylpiperidin-4-yl)phenylamino)-5-((3aR,7aR)-1-(cyclopropanecarbonyl)dihydro-1H-pyrrolo[3,2-b]pyridin-4(2H,5H,6H,7H,7aH)-yl)pyrazine-2-carboxamide] | 10 to 100 nM | 10 to 100 nM |  |
| NC(=O)c1ncc(N2CC[C@H]3CCN[C@H]3C2)nc1Nc1ccc(C2CCN(C3CCCC3)CC2)cc1 (racemic) [Example 291] | 100 to 1000 nM |  |  |
| CN(C)C(=O)N1CC[C@@H]2CCN(c3cnc(C(N)=O)c(Nc4ccc(C5CCN(C6CCCC6)CC5)cc4)n3)C[C@@H]21 (racemic) [Example 292, (3aS,7aR)-6-(5-carbamoyl-6-(4-(1-cyclopentylpiperidin-4-yl)phenylamino)pyrazin-2-yl)-N,N-dimethyloctahydro-1H-pyrrolo[2,3-c]pyridine-1-carboxamide] | 10 to 100 nM |  | 10 to 100 nM |
| NC(=O)c1ncc(N2CC[C@H]3CCN(C(=O)C4CC4)[C@H]3C2)nc1Nc1ccc(C2CCN(C3CCCC3)CC2)cc1 (racemic) [Example 293, 3-(4-(1-cyclopentylpiperidin-4-yl)phenylamino)-5-((3aS,7aR)-1-(cyclopropanecarbonyl)tetrahydro-1H-pyrrolo[2,3-c]pyridin-6(2H,7H,7aH)-yl)pyrazine-2-carboxamide] | 10 to 100 nM | 10 to 100 nM |  |
| CC1[C@H](NC(=O)C2CC2)CCCN1c1cnc(C(N)=O)c(Nc2ccc(C3CCN(C4CCCC4)CC3)cc2)n1 (stereo in doubt) [Example 349, (R)-3-(4-(1-cyclopentylpiperidin-4-yl)phenylamino)-5-(3-(cyclopropanecarboxamido)-2-methylpiperidin-1-yl)pyrazine-2-carboxamide] | < 10 nM |  |  |
| CN(C(=O)c1ccc(C(C)(C)C)cc1)[C@@H]1CCCN(c2nnc(C(N)=O)c(Nc3ccc(C(=O)N4CCOCC4)cc3)n2)C1 [Example 3, (R)-3-(3-(4-tert-butyl-N-methylbenzamido)piperidin-1-yl)-5-(4-(morpholine-4-carbonyl)phenylamino)-1,2,4-triazine-6-carboxamide] | 10 to 100 nM |  |  |
| Cc1ccc(C(=O)N[C@@H]2CCCN(c3nnc(C(N)=O)c(Nc4ccc(C(=O)N5CCOCC5)cc4)n3)C2)cc1 [Example 4, (R)-3-(3-(4-methylbenzamido)piperidin-1-yl)-5-(4-(morpholine-4-carbonyl)phenylamino)-1,2,4-triazine-6-carboxamide] | < 10 nM |  |  |
| NC(=O)c1nnc(N2CCC[C@@H](NC(=O)c3ccccc3)C2)nc1Nc1ccc(C(=O)N2CCOCC2)cc1 [Example 5, (R)-3-(3-benzamidopiperidin-1-yl)-5-(4-(morpholine-4-carbonyl)phenylamino)-1,2,4-triazine-6-carboxamide] | < 10 nM |  |  |
| NC(=O)c1nnc(N2CCC[C@@H](NC(=O)c3ccc(C(F)(F)F)cc3)C2)nc1Nc1ccc(C(=O)N2CCOCC2)cc1 [Example 6, (R)-5-(4-(morpholine-4-carbonyl)phenylamino)-3-(3-(4-(trifluoromethyl)benzamido)piperidin-1-yl)-1,2,4-triazine-6-carboxamide] | < 10 nM |  |  |
| N#Cc1ccc(C(=O)N[C@@H]2CCCN(c3nnc(C(N)=O)c(Nc4ccc(C(=O)N5CCOCC5)cc4)n3)C2)cc1 [Example 7, (R)-3-(3-(4-cyanobenzamido)piperidin-1-yl)-5-(4-(morpholine-4-carbonyl)phenylamino)-1,2,4-triazine-6-carboxamide] | 10 to 100 nM |  |  |
